Measurements from PubChem BioAssay AID1963970 (Molecular Pharmacology Branch, DTP, NCI, 2024).

System: 931267-113-T-J1-PDC multicell spheroid viability
Assay: Anticancer human tumor 931267-113-T-J1-PDC patient-derived colon adenocarcinoma cell line growth inhibition [PI3K]
Conditions: for IC50: curve of first compound; for viability, T/C: stronger effect = lower value; active = viability on the fitted dose curve at most 10% of control; inactive = the rest
In short: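 Combination activity was assessed by viability in multicellular tumor spheroids carrying HUVEC and MSC components. Agents were tested with PI3K inhibitors from a Cmax-based top dose (or 10 microM) downward in half-log increments.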

[1] = second compound 0.0316 µM, first compound 0.0316 µM
[2] = second compound 0.0316 µM, first compound 0.1 µM
[3] = second compound 0.1 µM, first compound 0.0316 µM
[4] = second compound 0.1 µM, first compound 0.1 µM
[5] = second compound 0.316 µM, first compound 0.0316 µM
[6] = second compound 0.316 µM, first compound 0.1 µM
[7] = second compound 1 µM, first compound 0.0316 µM
[8] = second compound 1 µM, first compound 0.1 µM
[9] = second compound 3.16 µM, first compound 0.0316 µM
[10] = second compound 3.16 µM, first compound 0.1 µM
[11] = second compound 10 µM, first compound 0.0316 µM
[12] = second compound 10 µM, first compound 0.1 µM
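Note: viability read 7 days after compound addition.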

C[C@@H](NC(=O)c1ncnc(N)c1Cl)c1ncc(C(=O)Nc2cc(C(F)(F)F)c(Cl)cn2)s1 + Cc1nc(NC(=O)N2CCCC2C(N)=O)sc1-c1ccnc(C(C)(C)C(F)(F)F)c1
5.35 µM: IC50 (second compound 3.16 µM)
9.87 µM: IC50 (second compound 1 µM)
> 10 µM: IC50 (second compound 0.0316 µM) | IC50 (second compound 0.1 µM) | IC50 (second compound 0.316 µM)
1.39 µM: IC50 (second compound 10 µM)
inactive: viability, T/C [1] 110% | viability, T/C [2] 106% | viability, T/C (second compound 0.0316 µM, first compound 0.316 µM) 110% | viability, T/C (second compound 0.0316 µM, first compound 1 µM) 116% | viability, T/C (second compound 0.0316 µM, first compound 3.16 µM) 97.5% | viability, T/C (second compound 0.0316 µM, first compound 10 µM) 82.8% | viability, T/C [3] 103% | viability, T/C [4] 107% | viability, T/C (second compound 0.1 µM, first compound 0.316 µM) 113% | viability, T/C (second compound 0.1 µM, first compound 1 µM) 111% | viability, T/C (second compound 0.1 µM, first compound 3.16 µM) 88.7% | viability, T/C (second compound 0.1 µM, first compound 10 µM) 72.5% | viability, T/C [5] 106% | viability, T/C [6] 96.4% | viability, T/C (second compound 0.316 µM, first compound 0.316 µM) 106% | viability, T/C (second compound 0.316 µM, first compound 1 µM) 95.7% | viability, T/C (second compound 0.316 µM, first compound 3.16 µM) 74.6% | viability, T/C (second compound 0.316 µM, first compound 10 µM) 57.5% | viability, T/C [7] 93.7% | viability, T/C [8] 93.2% | viability, T/C (second compound 1 µM, first compound 0.316 µM) 99.2% | viability, T/C (second compound 1 µM, first compound 1 µM) 81.1% | viability, T/C (second compound 1 µM, first compound 3.16 µM) 71.2% | viability, T/C (second compound 1 µM, first compound 10 µM) 49.5% | viability, T/C [9] 83.6% | viability, T/C [10] 91.8% | viability, T/C (second compound 3.16 µM, first compound 0.316 µM) 83.3% | viability, T/C (second compound 3.16 µM, first compound 1 µM) 79.8% | viability, T/C (second compound 3.16 µM, first compound 3.16 µM) 62.6% | viability, T/C (second compound 3.16 µM, first compound 10 µM) 35% | viability, T/C [11] 72.2% | viability, T/C [12] 63.3% | viability, T/C (second compound 10 µM, first compound 0.316 µM) 63.8% | viability, T/C (second compound 10 µM, first compound 1 µM) 52% | viability, T/C (second compound 10 µM, first compound 3.16 µM) 41.9% | viability, T/C (second compound 10 µM, first compound 10 µM) 16.9%

CC(C)n1nc(-c2ccc3oc(N)nc3c2)c2c(N)ncnc21 + Cc1nc(NC(=O)N2CCCC2C(N)=O)sc1-c1ccnc(C(C)(C)C(F)(F)F)c1
inactive: viability, T/C (second compound 0.0316 µM, first compound 0.000316 µM) 97.2% | viability, T/C (second compound 0.0316 µM, first compound 0.001 µM) 84.3% | viability, T/C (second compound 0.0316 µM, first compound 0.00316 µM) 81.5% | viability, T/C (second compound 0.0316 µM, first compound 0.01 µM) 101% | viability, T/C [1] 78.3% | viability, T/C [2] 47.6% | viability, T/C (second compound 0.1 µM, first compound 0.000316 µM) 97.3% | viability, T/C (second compound 0.1 µM, first compound 0.001 µM) 91.1% | viability, T/C (second compound 0.1 µM, first compound 0.00316 µM) 89.9% | viability, T/C (second compound 0.1 µM, first compound 0.01 µM) 92.6% | viability, T/C [3] 79.7% | viability, T/C [4] 41.5% | viability, T/C (second compound 0.316 µM, first compound 0.000316 µM) 88.8% | viability, T/C (second compound 0.316 µM, first compound 0.001 µM) 91.9% | viability, T/C (second compound 0.316 µM, first compound 0.00316 µM) 86.8% | viability, T/C (second compound 0.316 µM, first compound 0.01 µM) 85.5% | viability, T/C [5] 68.4% | viability, T/C [6] 41.5% | viability, T/C (second compound 1 µM, first compound 0.000316 µM) 78.9% | viability, T/C (second compound 1 µM, first compound 0.001 µM) 72.3% | viability, T/C (second compound 1 µM, first compound 0.00316 µM) 72.7% | viability, T/C (second compound 1 µM, first compound 0.01 µM) 66.8% | viability, T/C [7] 64.1% | viability, T/C [8] 38.3% | viability, T/C (second compound 3.16 µM, first compound 0.000316 µM) 68.8% | viability, T/C (second compound 3.16 µM, first compound 0.001 µM) 67.8% | viability, T/C (second compound 3.16 µM, first compound 0.00316 µM) 62.1% | viability, T/C (second compound 3.16 µM, first compound 0.01 µM) 58.4% | viability, T/C [9] 48.4% | viability, T/C [10] 30.7% | viability, T/C (second compound 10 µM, first compound 0.000316 µM) 62.3% | viability, T/C (second compound 10 µM, first compound 0.001 µM) 52.3% | viability, T/C (second compound 10 µM, first compound 0.00316 µM) 55.6% | viability, T/C (second compound 10 µM, first compound 0.01 µM) 45.7% | viability, T/C [11] 44% | viability, T/C [12] 24.1%
0.0249 µM: IC50 (second compound 3.16 µM)
0.0569 µM: IC50 (second compound 1 µM)
0.0915 µM: IC50 (second compound 0.0316 µM)
0.0697 µM: IC50 (second compound 0.316 µM)
0.00831 µM: IC50 (second compound 10 µM)
0.0777 µM: IC50 (second compound 0.1 µM)
